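Five concentrations, 48 hours, 96-well plates. The concentration for 50% growth inhibition is given as GI50.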 Activity calls are given as the source filed them. Cut-off read from the data, not from the text of the source: active = GI50 up to about 1.1 µM and inactive = higher.
Legend:
Assay in all cases: NCI tumour cell line growth inhibition, 48 h
NCI-H226 = tested on: NCI-H226
OVCAR-5 = tested on: OVCAR-5
NCI-H23 = tested on: NCI-H23
UACC-257 = tested on: UACC-257
DLD-1 = tested on: DLD-1
HCC 2998 = tested on: HCC 2998
SN12C = tested on: SN12C
SK-MEL-2 = tested on: SK-MEL-2
NCI-H460 = tested on: NCI-H460
SW-620 = tested on: SW-620
SF-268 = tested on: SF-268
NCI-H522 = tested on: NCI-H522
CCRF-CEM = tested on: CCRF-CEM
HCT-116 = tested on: HCT-116
OVCAR-8 = tested on: OVCAR-8
Malme-3M = tested on: Malme-3M
RXF 631 = tested on: RXF 631
IGROV-1 = tested on: IGROV-1
HOP-18 = tested on: HOP-18
LXFL 529 = tested on: LXFL 529
UACC-62 = tested on: UACC-62
KM12 = tested on: KM12
RPMI-8226 = tested on: RPMI-8226
HCT-15 = tested on: HCT-15
A498 = tested on: A498
HOP-62 = tested on: HOP-62
SK-MEL-28 = tested on: SK-MEL-28
XF498 = tested on: XF498
SNB-19 = tested on: SNB-19
M19-MEL = tested on: M19-MEL
SF-295 = tested on: SF-295
OVCAR-3 = tested on: OVCAR-3
SNB-75 = tested on: SNB-75
RXF 393 = tested on: RXF 393
HOP-92 = tested on: HOP-92
786-0 = tested on: 786-0
MOLT-4 = tested on: MOLT-4
DMS-114 = tested on: DMS-114
U-251 = tested on: U-251
SF-539 = tested on: SF-539
EKVX = tested on: EKVX
KM-20L2 = tested on: KM-20L2
LOX IMVI = tested on: LOX IMVI
ACHN = tested on: ACHN
HL-60 = tested on: HL-60
HT-29 = tested on: HT-29
OVCAR-4 = tested on: OVCAR-4
SNB-78 = tested on: SNB-78
SK-MEL-5 = tested on: SK-MEL-5
M14 = tested on: M14
K562 = tested on: K562
A549 = tested on: A549
UO-31 = tested on: UO-31
COLO 205 = tested on: COLO 205
SK-OV-3 = tested on: SK-OV-3
DMS-273 = tested on: DMS-273
TK-10 = tested on: TK-10
SR = tested on: SR
CAKI-1 = tested on: CAKI-1

## O=c1c2cc([N+](=O)[O-])ccc2sc2ccsc12
NCI-H226
  GI50: > 100 µM (inactive)
OVCAR-5
  GI50: > 100 µM (inactive)
NCI-H23
  GI50: > 100 µM (inactive)
UACC-257
  GI50: > 100 µM (inactive)
DLD-1
  GI50: > 100 µM (inactive)
HCC 2998
  GI50: > 100 µM (inactive)
SN12C
  GI50: > 100 µM (inactive)
SK-MEL-2
  GI50: > 100 µM (inactive)
NCI-H460
  GI50: > 100 µM (inactive)
SW-620
  GI50: > 100 µM (inactive)
SF-268
  GI50: > 100 µM (inactive)
NCI-H522
  GI50: > 100 µM (inactive)
CCRF-CEM
  GI50: > 100 µM (inactive)
HCT-116
  GI50: > 100 µM (inactive)
OVCAR-8
  GI50: > 100 µM (inactive)
Malme-3M
  GI50: > 100 µM (inactive)
RXF 631
  GI50: > 100 µM (inactive)
IGROV-1
  GI50: > 100 µM (inactive)
HOP-18
  GI50: > 100 µM (inactive)
LXFL 529
  GI50: 69.3 µM (inactive)
UACC-62
  GI50: > 100 µM (inactive)
KM12
  GI50: > 100 µM (inactive)
RPMI-8226
  GI50: > 100 µM (inactive)
HCT-15
  GI50: > 100 µM
A498
  GI50: > 100 µM (inactive)
HOP-62
  GI50: > 100 µM (inactive)
SK-MEL-28
  GI50: > 100 µM (inactive)
XF498
  GI50: > 100 µM (inactive)
SNB-19
  GI50: > 100 µM (inactive)
M19-MEL
  GI50: > 100 µM (inactive)
SF-295
  GI50: > 100 µM (inactive)
OVCAR-3
  GI50: > 100 µM (inactive)
SNB-75
  GI50: > 100 µM (inactive)
RXF 393
  GI50: > 100 µM (inactive)
HOP-92
  GI50: > 100 µM (inactive)
786-0
  GI50: > 100 µM (inactive)
MOLT-4
  GI50: > 100 µM (inactive)
DMS-114
  GI50: > 100 µM (inactive)
U-251
  GI50: > 100 µM (inactive)
SF-539
  GI50: > 100 µM (inactive)
EKVX
  GI50: > 100 µM (inactive)
KM-20L2
  GI50: > 100 µM (inactive)
LOX IMVI
  GI50: > 100 µM (inactive)
ACHN
  GI50: > 100 µM (inactive)
HL-60
  GI50: > 100 µM (inactive)
HT-29
  GI50: > 100 µM (inactive)
OVCAR-4
  GI50: > 100 µM (inactive)
SNB-78
  GI50: > 100 µM (inactive)
SK-MEL-5
  GI50: > 100 µM (inactive)
M14
  GI50: > 100 µM (inactive)
K562
  GI50: > 100 µM (inactive)
A549
  GI50: > 100 µM (inactive)
UO-31
  GI50: > 100 µM (inactive)
COLO 205
  GI50: > 100 µM (inactive)
SK-OV-3
  GI50: > 100 µM (inactive)

## Cc1cc(O)c(C(=O)CC2(O)C(=O)Nc3c(Cl)cc(Cl)cc32)c(=O)o1 (stereo unspecified)
NCI-H226
  GI50: 88.1 µM (inactive)
OVCAR-5
  GI50: > 100 µM (inactive)
NCI-H23
  GI50: > 100 µM (inactive)
UACC-257
  GI50: > 100 µM (inactive)
DLD-1
  GI50: > 100 µM (inactive)
HCC 2998
  GI50: > 100 µM (inactive)
DMS-273
  GI50: 41.7 µM (inactive)
SN12C
  GI50: > 100 µM (inactive)
TK-10
  GI50: > 100 µM (inactive)
SK-MEL-2
  GI50: > 100 µM (inactive)
NCI-H460
  GI50: > 100 µM (inactive)
SW-620
  GI50: 52.1 µM (inactive)
SF-268
  GI50: > 100 µM (inactive)
NCI-H522
  GI50: > 100 µM (inactive)
CCRF-CEM
  GI50: 63 µM (inactive)
HCT-116
  GI50: > 100 µM (inactive)
OVCAR-8
  GI50: > 100 µM (inactive)
Malme-3M
  GI50: > 100 µM (inactive)
RXF 631
  GI50: > 100 µM (inactive)
IGROV-1
  GI50: > 100 µM (inactive)
HOP-18
  GI50: > 100 µM (inactive)
LXFL 529
  GI50: > 100 µM (inactive)
UACC-62
  GI50: > 100 µM (inactive)
KM12
  GI50: > 100 µM (inactive)
RPMI-8226
  GI50: 55.5 µM (inactive)
HCT-15
  GI50: > 100 µM
A498
  GI50: > 100 µM (inactive)
HOP-62
  GI50: > 100 µM (inactive)
SK-MEL-28
  GI50: > 100 µM (inactive)
XF498
  GI50: > 100 µM (inactive)
SNB-19
  GI50: > 100 µM (inactive)
SR
  GI50: > 100 µM (inactive)
M19-MEL
  GI50: 46.8 µM (inactive)
SF-295
  GI50: > 100 µM (inactive)
OVCAR-3
  GI50: > 100 µM (inactive)
SNB-75
  GI50: 26.6 µM (inactive)
CAKI-1
  GI50: > 100 µM (inactive)
HOP-92
  GI50: > 100 µM (inactive)
786-0
  GI50: > 100 µM (inactive)
MOLT-4
  GI50: > 100 µM (inactive)
U-251
  GI50: > 100 µM (inactive)
SF-539
  GI50: 61.1 µM (inactive)
EKVX
  GI50: > 100 µM (inactive)
KM-20L2
  GI50: > 100 µM (inactive)
ACHN
  GI50: > 100 µM (inactive)
HL-60
  GI50: > 100 µM (inactive)
HT-29
  GI50: > 100 µM (inactive)
OVCAR-4
  GI50: > 100 µM (inactive)
SNB-78
  GI50: > 100 µM (inactive)
SK-MEL-5
  GI50: > 100 µM (inactive)
M14
  GI50: > 100 µM (inactive)
K562
  GI50: > 100 µM (inactive)
A549
  GI50: > 100 µM (inactive)
UO-31
  GI50: > 100 µM (inactive)
COLO 205
  GI50: > 100 µM (inactive)
SK-OV-3
  GI50: > 100 µM (inactive)
